Patent US7705049B2, “Methods for treating non-melanoma cancers with PABA” (New York University, priority 2004, dated 2010)

Experiments:
[1] = system: MCF7 breast carcinoma cells; experiment: MTT proliferation assay, MCF7 cells; assay type: cell-based; settings: Homo sapiens, PABA 0.1 mg/ml 3 days, 5-FU 1 μM, ^90Y-huBrE-3 1 μCi, MTT after 72 hours
Method: Pharmaceutical grade ^90Y was buffered in 0.05M acetate and incubated with MX-DTPA-huBrE-3 and 5 mM EDTA for 1 hr, followed by purification on a Bio-Gel P6 column eluted with 1% human serum albumin to generate radiolabeled ^90Y-huBrE-3 antibody. MCF7 breast carcinoma cells were incubated with and without PABA (0.1 mg/ml) in DMEM media for 3 days, and then exposed to 5-fluorouracil (5-FU) in concentrations of 0, 0.05, 0.1, 1.0 and 5.0 μM, and concentrations of ^90Y-huBrE-3 in concentrations of 0, 1.0, 2.0, and 4 μCi. Effects on proliferation were monitored after 72 hours using a commercially available MTT assay.

[2] = system: 4T1 breast carcinoma cells; experiment: Subcutaneous 4T1 breast tumor growth and lung metastasis in mice; assay type: in vivo
Method: Sub-confluent cultures of 4T1 breast carcinoma cells were harvested, washed and resuspended in PBS. Female nude mice or Balb/c strain mice were injected subcutaneously with approximately 1×10^6 tumor cells. Subcutaneous tumors were allowed to grow for 7 days, at which time the mice were treated daily by intraperitoneal injections of the following: • PABA alone (500 μg/mouse) • Radiation alone (9.0 Gy) • PABA and radiation • Docetaxel (8.0 mg/kg 1 time/week, intraperitoneal administration) • PABA and docetaxel (daily PABA and intraperitoneal administration of 8.0 mg/kg docetaxel 1 time/week) Untreated mice were used as a control. Tumor growth was gauged by weekly caliper measurements. After 28 days, the mice were sacrificed and tumor volumes were calculated by standard methods using the formula […], where V=volume, L=length and W=width.

[3] = system: SKOV-3 ovarian carcinoma cells; experiment: MTT proliferation assay, SKOV-3 cells; assay type: cell-based; settings: topotecan 0.1 uM alone, compared to untreated controls
Method: Similarly, SKOV-3 ovarian carcinoma cells were incubated with or without PABA at 0.1 mg/ml in DMEM for 3 days and subsequently exposed to topotecan at concentrations of 0, 0.1, 0.5 and 2.0 μM, and ^90Y-huBrE-3 at concentrations of 0, 1.0, 2.0, and 4.0 μCi, and evaluated using an MTT assay after 72 hrs.

[4] = system: murine 4T1 breast carcinoma cells; experiment: Chick embryo CAM tumor growth, 4T1 breast carcinoma; assay type: in vivo, chick embryos; settings: 4T1 on CAM; PABA 100 ug/ml; 7 days
Method: (§1) Lewis Lung carcinoma cells and murine 4T1 breast carcinoma cells (available from American Type Culture Collection, Rockville, MD-No. CRL-2539), were cultured in growth medium in the presence or absence of PABA (100 ug/ml) for at least 7 days. The cells were harvested, washed and resuspended in sterile PBS, followed by implantation on the chorioallantoic membranes (CAM) of 10-day old chick embryos. Embryos were allowed to incubate for 24 hours. The embryos were then treated with either a single fraction dose of ionizing radiation (5.0 Gy) or TAXOL® (0.01 μM) and allowed to incubate for 7 days. Tumor growth was assessed by measuring the wet weights of resected tumors (5-10 tumors per condition).

[5] = system: Lewis Lung carcinoma cells; experiment: Chick embryo CAM tumor growth, Lewis Lung carcinoma; assay type: in vivo, chick embryos; settings: PABA 100 ug/ml, TAXOL 0.01 μM, 7 days
Method: as §1, with “days.” for “days. Tumor growth was assessed by measuring the wet weights of resected tumors (5-10 tumors per condition).”

[6] = system: cell cycle control genes in B16F10 and G361 melanoma cells; experiment: AFFYMATRIX cDNA array analysis of tumor cells; assay type: cell-based, human and mouse; settings: PABA 100 μg/ml
Method: (§2) An AFFYMATRIX™ based cDNA array analysis was performed on tumor cells cultured in the presence or absence of PABA (100 μg/ml). A number of genes within the tumor cells were differentially expressed following PABA treatment. Experiments were conducted on genes that were consistently altered in both human and mouse tumor cells. […] To confirm these findings, the expression of CDC25A was analyzed. 4T1 breast carcinoma cells and B16F10 melanoma cells were incubated in the presence or absence of PABA. After 7 days, the RNA was isolated. The relative levels of CDC25A mRNA were examined by RT-PCR or real time PCR. FIG. 8.

CDC25A mRNA = CDC25A mRNA by RT-PCR; assay type: cell-based; settings: 7 days
Method: as §2

BRCA-2 = experiment: Western blot, BRCA-2; assay type: cell-based; settings: G361 melanoma cells; 2 weeks with PABA
Method: (§3) Western blot analysis was performed to confirm the altered expression of CDC25A, c-Myc and BRCA-2 at the protein level. G361 melanoma cells were cultured for 2 weeks in the presence or absence of PABA. The cells were harvested and lysed in 1.0% Triton-X-100 lysis buffer. Equal amounts of total cell lysates (50 μg/lane) were separated by 10% SDS PAGE and the proteins were transferred to nitrocellulose membranes. The membranes were probed with monoclonal antibodies P4C10 (anti-β1 integrin), 3303 (anti-BRCA-2) and Ab-3 (anti-CDC25A) or secondary antibody only. […] BRCA-2 expression was decreased in cells treated with PABA compared to cells grown in the absence of PABA. […] In similar studies, c-Myc expression in 4T1 breast carcinoma cells and G361 melanoma cells was examined by Western blot. The nitrocellulose membranes were probed with anti-c-Myc monoclonal antibody 9402 (available from Cell Signaling Technology, Beverly, Mass.) and anti-actin monoclonal antibody. […] No change in actin levels was observed.

CDC25A = experiment: Western blot, CDC25A; assay type: cell-based; settings: G361 melanoma cells; 2 weeks with PABA
Method: as §3

β1 integrin subunit = experiment: Western blot, β1 integrin; assay type: cell-based; settings: G361 melanoma cells; 2 weeks with PABA
Method: as §3

c-Myc = experiment: Western blot, c-Myc; assay type: cell-based
Method: as §3

P21^CIP1 = experiment: Western blot, P21^CIP1; assay type: cell-based; settings: 4T1 breast cancer cells; PABA 100 μg/ml 7 days
Method: (§4) P21^CIP1 is a cell cycle dependent kinase inhibitor, which has a role in regulating the sensitivity of breast cancer cells to chemotherapeutic agents such as TAXOL®. 4T1 breast cancer cells were incubated in the presence or absence of PABA (100 μg/ml) for 7 days. The cells were washed and cell lysates were prepared. Levels of P21^CIP1 were analyzed by Western blot. Equal amounts (50 μg/lane) were separated by SDS PAGE and transferred to nitrocellulose membranes. The membranes were probed with anti-P21^CIP1 or anti-actin monoclonal antibodies.

actin = experiment: Western blot, actin; assay type: cell-based
Method: as §3
as §4, with “Equal amounts (50 μg/lane) were separated by SDS PAGE and transferred to nitrocellulose membranes. The membranes were probed with anti-P21^CIP1 or anti-actin monoclonal antibodies.” left out

G361 melanoma cells = experiment: Cell cycle analysis by flow cytometry, G361; assay type: cell-based; settings: PABA 100 μg/ml 2 weeks, untreated 12%
Method: (§5) G361 melanoma cells and 4T1 breast cancer cells were cultured in the presence or absence of PABA (100 μg/ml) for 2 weeks. The tumor cells were synchronized by serum starvation and cultured for 2 hours in 10% serum-containing medium. The cells were harvested, washed, fixed and stained with propidium iodide. Cell cycle analysis was performed by flow cytometry. The relative levels of untreated G361 cells (12%) and 4T1 cells (10%) in S-phase were low compared. FIG. 9. In contrast, 72% of PABA-treated G361 cells and 40% of PABA-treated 4T1 cells were in S-phase.

4T1 breast cancer cells = experiment: Cell cycle analysis by flow cytometry, 4T1; assay type: cell-based; settings: PABA 100 μg/ml 2 weeks, untreated 10%
Method: as §5

[7] = system: H460 non-small cell lung cancer cells; experiment: Reactive oxygen species by FACS; assay type: cell-based; settings: PABA 100 μg/ml
Method: H460 non-small cell lung cancer cells were grown in the presence or absence of PABA (100 μg/ml) in RPMI-1640 media containing 10% fetal calves serum, 1% penn/strep and 1% NaPyruvate. After 24 hours, a portion of the cells were exposed to 0.01 bortezomib (10 nM) for an additional 24 hours. […] The cells were monitored for ROS by the addition of dihydrothidine at a concentration of 5 μM for 15 minutes followed by fixation in ethanol and analysis by FACS. […] FIG. 10. Cells treated with PABA and bortezomib had about a 2 fold increase in ROS compared to cells treated with bortezomib alone.

[8] = cited from earlier work
[9] = system: Lewis Lung carcinoma cells; settings: cited from earlier work
melanogenesis = settings: in vitro and in vivo, alone or in combination with chemotherapy or radiation therapy; cited from earlier work
[10] = system: stage II or stage III breast cancer; settings: cited from earlier work
[11] = system: hormone receptor-positive tumors; settings: 3-year; cited from earlier work
MCF-7 xenograft = settings: subtherapeutic doses; cited from earlier work
[12] = system: reactive oxygen species (ROS); settings: 100 nM, 24 hours exposure; cited from earlier work

Structure (SMILES): O=c1[nH]cc(F)c(=O)[nH]1 [5-FU, 5-fluorouracil]
- inhibition at 1 µM [1]: ~25%

Structure (SMILES): CC(=O)O[C@@]12CO[C@@H]1C[C@H](O)[C@@]1(C)C(=O)[C@H](O)C3=C(C)[C@@H](OC(=O)[C@H](O)[C@@H](NC(=O)OC(C)(C)C)c4ccccc4)C[C@@](O)([C@@H](OC(=O)c4ccccc4)[C@H]21)C3(C)C [docetaxel, reference compound]
- reduction of tumor growth ([2]; docetaxel 8.0 mg/kg 1 time/week i.p., PABA 500 μg/mouse daily, 28 days (FIG. 3)): ~45%

Structure (SMILES): CC[C@@]1(O)C(=O)OCc2c1cc1n(c2=O)Cc2cc3c(CN(C)C)c(O)ccc3nc2-1 [topotecan]
- inhibition of proliferation [3]: minimally

Structure (SMILES): Nc1ccc(C(=O)O)cc1 [PABA, p-amino-benzoic acid]
- effect on 4T1 breast carcinoma tumor growth [4]: Neither PABA alone nor a single fraction dose of ionizing radiation had any effect
- effect on growth of Lewis Lung tumors [5]: neither PABA nor TAXOL® alone inhibited the growth
- reduction of mean tumor volume compared to untreated control mice ([2]; PABA 500 μg/mouse daily i.p., radiation 9.0 Gy, 28 days (FIG. 4)): about 26%
- BRCA-2 gene expression [6]: down-regulated
- H2A histone gene expression [6]: down-regulated
- H2B histone gene expression [6]: down-regulated
- P21^CIP1 gene expression [6]: down-regulated
- increase in levels of CDC25A mRNA compared to untreated controls (CDC25A mRNA; 4T1 breast carcinoma cells): about 2 fold
- increase in levels of CDC25A mRNA compared to untreated controls (CDC25A mRNA; B16F10 melanoma cells): about 2 fold
- BRCA-2 protein expression (BRCA-2): decreased
- CDC25A protein expression (CDC25A): markedly increased
- β1 integrin subunit expression (β1 integrin subunit): no change
- c-Myc protein expression (c-Myc; 4T1 cells): significant up-regulation
- c-Myc protein expression (c-Myc; G361 cells): significant up-regulation
- levels of P21^CIP1 (P21^CIP1): significantly reduced
- actin levels (actin; 4T1 and G361 cells, c-Myc blots): No change
- level of actin (actin; 4T1 breast cancer cells, PABA 100 μg/ml 7 days): Little change
- cells in S-phase (G361 melanoma cells): 72%
- cells in S-phase (4T1 breast cancer cells): 40%
- increase in ROS compared to untreated cells [7]: 3 fold
- time of peak plasma concentration after ingestion ([8]; after ingestion): about ¾
- mean half life ([8]; in vivo): about 0.5 hours
- in vitro proliferation of Lewis Lung carcinoma cells [9]: inhibit the in vitro proliferation
- melanogenesis (melanogenesis): inhibits melanogenesis

Structure (SMILES): CC/C(=C(\c1ccccc1)c1ccc(OCCN(C)C)cc1)c1ccccc1 [tamoxifen]
- overall survival ([10]; at 10 years): 36%
- local-regional recurrence ([10]; median follow-up of 10 years, tamoxifen 30 mg daily for 1 year): 35%
- disease-free survival [11]: 67%
- overall survival [11]: 85%

Structure (SMILES): CC(=O)O[C@H]1C(=O)[C@@]2(C)[C@H]([C@H](OC(=O)c3ccccc3)[C@]3(O)C[C@H](OC(=O)[C@H](O)[C@@H](NC(=O)c4ccccc4)c4ccccc4)C(C)=C1C3(C)C)[C@]1(OC(C)=O)CO[C@@H]1C[C@@H]2O [TAXOL®, paclitaxel, reference compound]
- effect on growth of Lewis Lung tumors [5]: neither PABA nor TAXOL® alone inhibited the growth
- responses with either treatment modality alone (MCF-7 xenograft): no responses

Structure (SMILES): CC(C)C[C@H](NC(=O)[C@H](Cc1ccccc1)NC(=O)c1cnccn1)B(O)O [bortezomib]
- induction of reactive oxygen species (ROS) [12]: actively induce reactive oxygen species (ROS)
